Earlier results, collected in patent US7060729B2, “Composition and method for treating skin” (priority 2002, dated 2006).
Like-named read-outs stand apart in the source and are kept apart here.

Assays:
[1] = in vivo
[2] = topical application
H. pylori = conditions: Mayr-Kanhauser 2001
[3] = as stated in US 5,972,993

Row | Compound | erythema, dryness, and burning associated with rosacea [1] | physicians' rating of global improvement, azelaic acid versus metronidazole [1] | reducing the number of inflammatory lesions and associated signs and symptoms of rosacea [1] | telangiectasia [1] | inflammatory papule lesions and erythema [2] | pustules caused by rosacea [2] | telangiectasia [2] | eliminating H. pylori (H. pylori) | effect against skin redness, telangiectasia or flushing [3] | effect on papules and pustules of rosacea [3]
1 | O=C(O)CCCCCCCC(=O)O [azelaic acid, 1,7-heptanedicarboxylic acid] | effective | more favorably | equally effective | failed to effect | significantly reduce | not effective | did not produce any major improvement |  |  | 
2 | CC[C@H]1OC(=O)[C@H](C)[C@@H](O[C@H]2C[C@@](C)(OC)[C@@H](O)[C@H](C)O2)[C@H](C)[C@@H](O[C@@H]2O[C@H](C)C[C@H](N(C)C)[C@H]2O)[C@](C)(OC)C[C@@H](C)C(=O)[C@H](C)[C@@H](O)[C@]1(C)O [clarithromycin] |  |  |  |  |  |  |  | effective |  | 
3 | Cc1ncc([N+](=O)[O-])n1CCO [metronidazole, 2-methyl-5-nitro-1H-imidazole-1-ethanol] | effective |  | equally effective | failed to effect |  |  |  | effective | ineffective | have an effect
